Measurements from ChEMBL document CHEMBL3797185, “Exploring the 2- and 5-positions of the pyrazolo[4,3-d]pyrimidin-7-amino scaffold to target human A1 and A2A adenosine receptors” (Bioorg Med Chem, 2016).

Columns and labels:
[1] = target: T1, Adenosine receptor A3 (Homo sapiens) (UniProt P0DMS8); experiment: Displacement of [125I]-AB-MECA from human adenosine A3 receptor expressed in CHO cell membranes at 1 uM after 60 mins by scintillation counting method relative to control
T1 sequence (whole entry): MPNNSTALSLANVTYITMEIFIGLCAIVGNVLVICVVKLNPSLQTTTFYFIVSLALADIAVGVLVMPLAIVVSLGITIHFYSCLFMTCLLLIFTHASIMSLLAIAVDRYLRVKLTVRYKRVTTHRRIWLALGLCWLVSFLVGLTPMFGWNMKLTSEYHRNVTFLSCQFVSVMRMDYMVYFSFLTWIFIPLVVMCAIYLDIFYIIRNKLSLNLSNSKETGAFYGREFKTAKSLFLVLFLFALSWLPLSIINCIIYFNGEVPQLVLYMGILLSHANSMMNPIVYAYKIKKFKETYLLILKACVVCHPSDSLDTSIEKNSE

Adenosine receptor A2a [2] = target: T2, Adenosine receptor A2a (Homo sapiens, UniProt P29274); experiment: Displacement of [3H]-ZM241385 from human adenosine A2A receptor expressed in CHO cell membranes at 1 uM after 60 mins by scintillation counting method relative to control
[3] = target: T3, Adenosine receptor A1 (Homo sapiens) (UniProt P30542); experiment: Displacement of [3H]-DPCPX from human adenosine A1 receptor expressed in CHO cell membranes at 1 uM after 120 mins by scintillation counting method relative to control
T3 sequence (whole entry): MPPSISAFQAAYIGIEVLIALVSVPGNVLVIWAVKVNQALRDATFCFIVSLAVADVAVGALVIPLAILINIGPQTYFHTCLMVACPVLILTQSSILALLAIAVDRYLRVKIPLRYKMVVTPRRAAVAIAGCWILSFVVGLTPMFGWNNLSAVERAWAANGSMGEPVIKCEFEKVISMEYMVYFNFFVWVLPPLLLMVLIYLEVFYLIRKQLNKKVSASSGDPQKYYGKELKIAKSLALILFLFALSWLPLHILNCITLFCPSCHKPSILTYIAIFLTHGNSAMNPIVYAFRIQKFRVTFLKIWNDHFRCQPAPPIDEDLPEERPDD

[4] = target: T4, Adenosine receptor A2b (Homo sapiens) (UniProt P29275); experiment: Antagonist activity at human adenosine A2B receptor expressed in CHO cell membranes assessed as inhibition of NECA-stimulated cAMP level at 1 uM preincubated for 10 mins followed by NECA stimulation by scintillation counting method in presence of [3H]-cyclic AMP; format: functional
T4 sequence (whole entry): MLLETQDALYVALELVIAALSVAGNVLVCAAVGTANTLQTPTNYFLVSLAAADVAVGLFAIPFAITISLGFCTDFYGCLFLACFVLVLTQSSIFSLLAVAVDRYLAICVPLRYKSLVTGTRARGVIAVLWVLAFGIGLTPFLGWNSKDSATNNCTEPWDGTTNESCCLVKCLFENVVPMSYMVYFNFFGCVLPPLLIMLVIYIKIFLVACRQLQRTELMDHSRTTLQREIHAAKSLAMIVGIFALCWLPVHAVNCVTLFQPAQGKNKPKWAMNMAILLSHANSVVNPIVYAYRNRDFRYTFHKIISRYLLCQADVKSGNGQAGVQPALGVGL

Adenosine receptor A2a [5] = target: T2, Adenosine receptor A2a; experiment: Displacement of [3H]-ZM241385 from human adenosine A2A receptor expressed in CHO cell membranes after 60 mins by scintillation counting method
Homo sapiens = species: Homo sapiens; experiment: Selectivity ratio of Ki for human adenosine A1 receptor to Ki for human adenosine A2A receptor
Adenosine receptor A1 [6] = target: T5, Adenosine receptor A1 (Homo sapiens, UniProt P30542); experiment: Displacement of [3H]-DPCPX from human adenosine A1 receptor expressed in CHO cell membranes after 120 mins by scintillation counting method
T5 sequence (P30542 whole entry): T3 sequence (whole entry)

Adenosine receptor A2b = target: T6, Adenosine receptor A2b (Homo sapiens, UniProt P29275); experiment: Antagonist activity at human adenosine A2B receptor expressed in CHO cell membranes assessed as inhibition of NECA-stimulated cAMP level preincubated for 10 mins followed by NECA stimulation by scintillation counting method in presence of [3H]-cyclic AMP; format: functional
T6 sequence (P29275 whole entry): T4 sequence (whole entry)

Adenosine receptor A3 = target: T7, Adenosine receptor A3 (Homo sapiens, UniProt P0DMS8); experiment: Displacement of [125I]-AB-MECA from human adenosine A3 receptor expressed in CHO cell membranes after 60 mins by scintillation counting method
T7 sequence (P0DMS8 whole entry): T1 sequence (whole entry)

Adenosine receptor A1 [7] = target: T5, Adenosine receptor A1; experiment: Antagonist activity at human adenosine A1 receptor expressed in CHO cell membranes assessed as suppression of CCPA-mediated inhibition of cAMP level by scintillation counting method in presence of [3H]-cyclic AMP; format: functional
Adenosine receptor A2a [8] = target: T2, Adenosine receptor A2a; experiment: Antagonist activity at human adenosine A2A receptor expressed in CHO cell membranes assessed as inhibition of NECA-stimulated cAMP level preincubated for 10 mins followed by NECA stimulation by scintillation counting method in presence of [3H]-cyclic AMP; format: functional

T2 sequence (P29274 whole entry): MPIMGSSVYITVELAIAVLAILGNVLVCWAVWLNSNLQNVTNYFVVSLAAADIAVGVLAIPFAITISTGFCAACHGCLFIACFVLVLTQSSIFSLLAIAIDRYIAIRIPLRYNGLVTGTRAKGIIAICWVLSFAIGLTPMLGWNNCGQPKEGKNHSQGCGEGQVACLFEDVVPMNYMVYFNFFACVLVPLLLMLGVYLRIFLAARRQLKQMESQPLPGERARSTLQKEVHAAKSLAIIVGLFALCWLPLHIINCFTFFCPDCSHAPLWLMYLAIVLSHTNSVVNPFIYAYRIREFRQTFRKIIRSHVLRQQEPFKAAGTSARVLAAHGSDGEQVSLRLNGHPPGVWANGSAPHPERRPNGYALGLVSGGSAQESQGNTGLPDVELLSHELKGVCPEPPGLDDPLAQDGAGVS

Row | SMILES | inhibition [1] [%] | inhibition (Adenosine receptor A2a [2]) [%] | inhibition [3] [%] | inhibition [4] [%] | Ki (Adenosine receptor A2a [5]) [nM] | Ratio Ki (Homo sapiens) | Ki (Adenosine receptor A1 [6]) [nM] | IC50 (Adenosine receptor A2b) [nM] | Ki (Adenosine receptor A3) [nM] | IC50 (Adenosine receptor A1 [7]) [nM] | IC50 (Adenosine receptor A2a [8]) [nM]
1 | COc1ccccc1-n1cc2nc(-c3ccco3)nc(N)c2n1 | 37 | – | 31 | 12 | 362 | – | – | – | – | – | –
2 | Nc1nc(-c2cccs2)nc2cn(-c3ccccc3O)nc12 | – | – | – | 28 | 412 | – | 159 | – | 209 | – | –
3 | Nc1nc(-c2ccco2)nc2cn(Cc3ccccc3O)nc12 | – | – | – | – | 17 | 3 | 242 | 112 | 905 | – | –
4 | Cc1ccc(-c2nc(N)c3nn(Cc4ccccc4O)cc3n2)o1 | – | – | – | – | 38 | 3 | 111 | 395 | 122 | – | –
5 | Nc1nc(-c2ccco2)nc2cn(Cc3ccccc3)nc12 | 2 | – | 32 | 37 | 320 | – | – | – | – | – | –
6 | Nc1nc(CCCc2ccccc2)nc2cn(-c3ccccc3O)nc12 | 5 | – | – | 5 | 240 | – | 17 | – | – | – | –
7 | Cc1ccc(-c2nc(N)c3nn(Cc4ccccc4)cc3n2)o1 | – | – | – | 20 | 9.23 | 15 | 136 | – | 269 | 152 | 10.9
8 | Cc1ccc(-c2nc(N)c3nn(-c4ccccc4)cc3n2)o1 | – | – | – | 32 | 99 | – | 42 | – | 147 | – | –
9 | Cn1cc2nc(Cc3ccccc3)nc(N)c2n1 | 1 | 1 | 9 | 20 | – | – | – | – | – | – | –
10 | Nc1nc(Cc2ccccc2)nc2cn(-c3ccccc3O)nc12 | 19 | 21 | – | 1 | – | – | 52 | – | – | – | –
11 | COc1ccccc1-n1cc2nc(-c3cccs3)nc(N)c2n1 | – | 27 | 24 | 1 | – | – | – | – | 150 | – | –
12 | Cc1nc(N)c2nn(CCc3ccccc3)cc2n1 | 3 | 12 | 10 | 3 | – | – | – | – | – | – | –
13 | COc1ccccc1-n1cc2nc(-c3ccc(C)o3)nc(N)c2n1 | – | – | 1 | 1 | 518 | – | – | – | 297 | – | –
14 | Cc1ccc(-c2nc(N)c3nn(Cc4ccccc4Cl)cc3n2)o1 | – | – | – | – | 6.21 | 3 | 60 | 152 | 71 | – | –

Now from value to molecule:

Row | inhibition [1] [%] | inhibition (Adenosine receptor A2a [2]) [%] | inhibition [3] [%] | inhibition [4] [%] | Ki (Adenosine receptor A2a [5]) [nM] | Ratio Ki (Homo sapiens) | Ki (Adenosine receptor A1 [6]) [nM] | IC50 (Adenosine receptor A2b) [nM] | Ki (Adenosine receptor A3) [nM] | IC50 (Adenosine receptor A1 [7]) [nM] | IC50 (Adenosine receptor A2a [8]) [nM] | SMILES
15 | 30 | 1 | 36 | 2 | – | – | – | – | – | – | – | Cn1cc2nc(CCCc3ccccc3)nc(N)c2n1
16 | – | – | – | – | 51 | 3 | 252 | 421 | 427 | – | – | Cc1ccc(-c2nc(N)c3nn(Cc4cccc(F)c4)cc3n2)o1
17 | – | – | – | – | 14 | 3 | 65 | 633 | 225 | – | – | Cc1ccc(-c2nc(N)c3nn(Cc4cccc(O)c4)cc3n2)o1
18 | 6 | – | – | 21 | 647 | – | 49 | – | – | – | – | COc1ccccc1-n1cc2nc(CCCc3ccccc3)nc(N)c2n1
19 | 1 | 1 | 1 | 1 | – | – | – | – | – | – | – | Cc1nc(N)c2nn(Cc3ccccc3)cc2n1
20 | – | – | – | – | 5.26 | 22 | 120 | 293 | 88 | 134 | 6.42 | COc1cccc(Cn2cc3nc(-c4ccc(C)o4)nc(N)c3n2)c1
21 | – | 34 | – | 1 | – | – | 103 | – | 405 | – | – | COc1ccccc1-n1cc2nc(Cc3ccccc3)nc(N)c2n1
22 | – | – | – | – | 5.37 | 3 | 98 | 512 | 196 | 106 | 6.21 | COc1ccccc1Cn1cc2nc(-c3ccco3)nc(N)c2n1
23 | – | – | – | 30 | 3.62 | 3 | 18 | – | 82 | 21 | 4.35 | COc1ccccc1Cn1cc2nc(-c3ccc(C)o3)nc(N)c2n1
24 | 39 | – | – | 1 | 195 | – | 206 | – | – | – | – | Nc1nc(-c2ccco2)nc2cn(-c3ccccc3)nc12
25 | 8 | 23 | – | 8 | – | – | 410 | – | – | – | – | Cc1nc(N)c2nn(-c3ccccc3F)cc2n1
26 | 4 | 33 | 12 | 3 | – | – | – | – | – | – | – | Nc1nc(-c2ccco2)nc2cn(CCc3ccccc3)nc12
27 | 15 | 1 | 1 | 1 | – | – | – | – | – | – | – | Nc1nc(Cc2ccccc2)nc2cn(Cc3ccccc3)nc12
28 | – | 43 | 25 | 1 | – | – | – | – | 163 | – | – | Nc1nc(CCCc2ccccc2)nc2cn(-c3ccccc3F)nc12
29 | 36 | – | – | 42 | 89 | – | 372 | – | – | – | – | Nc1nc(-c2ccco2)nc2cn(-c3ccccc3O)nc12
30 | – | – | 1 | 1 | 147 | – | – | – | 375 | – | – | Cc1ccc(-c2nc(N)c3nn(-c4ccccc4O)cc3n2)o1
31 | – | – | – | – | 57 | 3 | 309 | 354 | 498 | – | – | Cc1ccc(-c2nc(N)c3nn(Cc4ccccc4F)cc3n2)o1
